Measured values taken from patent US9718790B2, “Triazine derivative and pharmaceutical composition having an analgesic activity comprising the same” (SHIONOGI & CO., LTD., priority 2010, dated 2017).
pIC50: −log10 of the molar value.

Target: human P2X3 receptor (Homo sapiens (Human), UniProt P56373)
Assay: Evaluation of human P2X3 receptor inhibitory activity (Fluo-3 calcium fluorescence, FDSS 3000, ATP stimulation);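 also: stimulus was 50 nM ATP with fluorescence followed for 3 min, and the response per well was peak post-ATP fluorescence divided by the reading at measurement start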
Type: cell-based
[1] = C6BU-1 cells stably expressing human P2X3 receptor

Sequence of human P2X3 receptor (P56373 whole entry): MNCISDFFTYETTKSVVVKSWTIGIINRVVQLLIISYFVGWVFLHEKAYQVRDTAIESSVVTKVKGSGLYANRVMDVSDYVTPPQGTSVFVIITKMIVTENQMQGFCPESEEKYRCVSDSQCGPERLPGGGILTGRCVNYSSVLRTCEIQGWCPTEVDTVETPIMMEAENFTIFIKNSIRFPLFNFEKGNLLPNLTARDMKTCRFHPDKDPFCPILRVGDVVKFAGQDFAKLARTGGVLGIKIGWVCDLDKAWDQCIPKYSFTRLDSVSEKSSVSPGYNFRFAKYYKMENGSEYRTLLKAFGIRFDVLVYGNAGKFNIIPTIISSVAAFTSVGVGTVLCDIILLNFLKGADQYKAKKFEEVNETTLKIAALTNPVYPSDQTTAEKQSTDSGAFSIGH

| Compound | pIC50 [1] | pIC50 (human P2X3 receptor, Test Example 1) |
| --- | --- | --- |
| CCn1c(=O)[nH]/c(=N\c2ccc(Oc3ccsc3C(=O)O)cc2)n(Cc2ccc(Cl)cc2)c1=O [Compound I-2041] | 6.96 | – |
| Cc1[nH]c2ccc(/N=c3\[nH]c(=O)n(CCO)c(=O)n3Cc3ccc(Cl)cc3)cc2c1C [Compound I-2042] | 7.64 | – |
| Cc1[nH]c2ccc(/N=c3\[nH]c(=O)n(C[C@H](O)CO)c(=O)n3Cc3ccc(Cl)cc3)cc2c1C [Compound I-2043] | 8.05 | – |
| O=c1ccccn1-c1ccc(/N=c2\[nH]c(=O)n(CCO)c(=O)n2Cc2ccc(Cl)cc2)cc1 [Compound I-2044] | 6.90 | – |
| Cc1ccc(Cn2c(=O)n(CCC(=O)O)c(=O)[nH]/c2=N\c2ccc(Cl)cc2)cc1 [Compound I-2045] | 6.01 | – |
| Cc1ccc(Cn2c(=O)n(CCC(=O)O)c(=O)[nH]/c2=N\c2cccc(Cl)c2)cc1 [Compound I-2047] | 6.42 | – |
| Cc1ccc(Cn2c(=O)n(CCC(=O)O)c(=O)[nH]/c2=N\c2ccc(OC(C)C)cc2C)cc1 [Compound I-2048] | 6.31 | – |
| Cc1ccc(Cn2c(=O)n(CCC(=O)O)c(=O)[nH]/c2=N\c2ccc(OC(C)C)cc2F)cc1 [Compound I-2049] | 7.07 | – |
| CCOc1ccc(/N=c2\[nH]c(=O)n(CCC(=O)O)c(=O)n2Cc2ccc(C)cc2)c(F)c1F [Compound I-2052] | 7.17 | – |
| CCOc1cc(F)c(/N=c2\[nH]c(=O)n(CCC(=O)O)c(=O)n2Cc2ccc(C)cc2)c(F)c1 [Compound I-2053] | 6.02 | – |
| Cc1ccc(Cn2c(=O)n(CCC(=O)O)c(=O)[nH]/c2=N\c2cccc(Cl)c2F)cc1 [Compound I-2054] | 6.21 | – |
| Cc1ccc(Cn2c(=O)n(C)c(=O)[nH]/c2=N\c2ccc(Oc3ccnc(CO)c3)cc2)cc1 [Compound I-2056] | 7.59 | – |
| CCn1c(=O)[nH]/c(=N\c2ccc(Oc3ccc(F)c(C(=O)OC)c3)cc2)n(Cc2ccc(Cl)cc2)c1=O [Compound I-2057] | 7.68 | – |
| COC(=O)c1ccc(Oc2ccc(/N=c3\[nH]c(=O)n(C)c(=O)n3Cc3ccc(Cl)cc3)cc2)cc1 [Compound I-2058] | 8.15 | – |
| COC(=O)c1cccc(Oc2ccc(/N=c3\[nH]c(=O)n(C)c(=O)n3Cc3ccc(Cl)cc3)cc2)c1 [Compound I-2059] | 7.25 | – |
| Cc1ccc(Cn2c(=O)n(C)c(=O)[nH]/c2=N\c2ccc(Oc3cccc(C(=O)O)c3)cc2)cc1 [Compound I-2060] | 7.66 | – |
| Cc1ccc(Cn2c(=O)n(C)c(=O)[nH]/c2=N\c2ccc(Oc3ccc(C(=O)O)cc3)cc2)cc1 [Compound I-2061] | 6.83 | – |
| Cn1c(=O)[nH]/c(=N\c2ccc(Oc3ccc(C(=O)O)cc3)cc2)n(Cc2ccc(Cl)cc2)c1=O [Compound I-2063] | 6.92 | – |
| Cn1c(=O)[nH]/c(=N\c2ccc(Oc3cccc(C(=O)O)c3)cc2)n(Cc2ccc(Cl)cc2)c1=O [Compound I-2064] | 7.40 | – |
| CCn1c(=O)[nH]/c(=N\c2ccc(Oc3cccc(CO)c3)cc2)n(Cc2ccc(Cl)cc2)c1=O [Compound I-2065] | 7.27 | – |
| CCn1c(=O)[nH]/c(=N\c2ccc(Oc3ccc(F)c(C(=O)O)c3)cc2)n(Cc2ccc(Cl)cc2)c1=O [Compound I-2066] | 7.64 | – |
| CCn1c(=O)[nH]/c(=N\c2ccc(Oc3cccc(C(=O)OC)n3)cc2)n(Cc2ccc(Cl)cc2)c1=O [Compound I-2067] | 7.68 | – |
| CCOC(=O)OC(=O)c1ccc(Oc2ccc(/N=c3\[nH]c(=O)n(CC)c(=O)n3Cc3ccc(C)cc3)cc2)cc1 [Compound I-2068] | 7.80 | – |

| Compound | pIC50 [1] | pIC50 (human P2X3 receptor, Test Example 1) |
| --- | --- | --- |
| Cc1cc2cc(/N=c3\[nH]c(=O)n(CC4COC(C)(C)OC4)c(=O)n3Cc3ccc(Cl)cc3)ccc2o1 [Compound I-2069] | 8.15 | – |
| Cc1cc2cc(/N=c3\[nH]c(=O)n(CC(CO)CO)c(=O)n3Cc3ccc(Cl)cc3)ccc2o1 [Compound I-2070] | 7.72 | – |
| Cc1oc2ccc(/N=c3\[nH]c(=O)n(CC4COC(C)(C)OC4)c(=O)n3Cc3ccc(Cl)cc3)cc2c1C [Compound I-2071] | 8.10 | – |
| Cc1oc2ccc(/N=c3\[nH]c(=O)n(CC(CO)CO)c(=O)n3Cc3ccc(Cl)cc3)cc2c1C [Compound I-2072] | 8.10 | – |
| Cc1oc2ccc(/N=c3\[nH]c(=O)n(CCCOC4CCCCO4)c(=O)n3Cc3ccc(Cl)cc3)cc2c1C (centres unmarked) [Compound I-2073] | 8.00 | – |
| Cc1oc2ccc(/N=c3\[nH]c(=O)n(CCCO)c(=O)n3Cc3ccc(Cl)cc3)cc2c1C [Compound I-2074] | 8.15 | – |
| CCn1c(=O)[nH]/c(=N\c2ccc(Oc3cncc(CO)c3)cc2)n(Cc2ccc(Cl)cc2)c1=O [Compound I-2075] | 7.68 | – |
| CCn1c(=O)[nH]/c(=N\c2ccc(Oc3cncc(C(=O)OC)c3)cc2)n(Cc2ccc(C)cc2)c1=O [Compound I-2076] | 8.15 | – |
| O=c1[nH]/c(=N\c2ccc(Oc3cncc(CO)c3)cc2)n(Cc2ccc(Cl)cc2)c(=O)n1CCOC1CCCCO1 (centres unmarked) [Compound I-2077] | 8.52 | – |
| CCn1c(=O)[nH]/c(=N\c2ccc(Oc3cncc(C(=O)O)c3)cc2)n(Cc2ccc(C)cc2)c1=O [Compound I-2078] | 8.10 | – |
| O=c1[nH]/c(=N\c2ccc(Oc3cncc(CO)c3)cc2)n(Cc2ccc(Cl)cc2)c(=O)n1CCO [Compound I-2079] | 7.42 | – |
| Cc1ccc(Cn2c(=O)n(CCC(=O)O)c(=O)[nH]/c2=N\c2cc(C(F)(F)F)ccc2C)cc1 [Compound I-2082] | 6.08 | – |
| Cc1ccc(Cn2c(=O)n(CCC(=O)O)c(=O)[nH]/c2=N\c2cccc(C(F)(F)F)c2C)cc1 [Compound I-2085] | 6.07 | – |
| Cc1ccc(Cn2c(=O)n(CCC(=O)O)c(=O)[nH]/c2=N\c2cccc(C(F)(F)F)c2F)cc1 [Compound I-2086] | 6.63 | – |
| Cc1ccc(Cn2c(=O)n(CCC(=O)O)c(=O)[nH]/c2=N\c2c(Cl)ccc(C(F)(F)F)c2C)cc1 [Compound I-2090] | – | > 8.40 |
| CCn1c(=O)[nH]/c(=N\c2ccc(Oc3cccc(C(=O)O)n3)cc2)n(Cc2ccc(Cl)cc2)c1=O [Compound I-2095] | 8.30 | – |
| CCn1c(=O)[nH]/c(=N\c2ccc(Oc3nccc(OC)n3)cc2)n(Cc2ccc(Cl)cc2)c1=O [Compound I-2096] | 7.46 | – |
| Cc1nc2ccc(/N=c3\[nH]c(=O)n(C[C@H](O)CO)c(=O)n3CC3CCC(C)CC3)cc2s1 (some centres unmarked) [Compound I-2097] | 8.30 | – |
| Cc1nc2ccc(/N=c3\[nH]c(=O)n(CCO)c(=O)n3CC3CCC(C)CC3)cc2s1 (centres unmarked) [Compound I-2098] | 8.40 | – |
| Cn1c(=O)[nH]/c(=N\c2ccc(Oc3ccnc(C(=O)O)c3)cc2)n(Cc2ccc(Cl)cc2)c1=O [Compound I-2099] | 8.10 | – |
| Cc1ccc(Cn2c(=O)n(C)c(=O)[nH]/c2=N\c2ccc(Oc3ccnc(C(=O)O)c3)cc2)cc1 [Compound I-2100] | 8.15 | – |
| CNC(=O)c1cc(Oc2ccc(/N=c3\[nH]c(=O)[nH]c(=O)n3Cc3ccc(Cl)cc3)cc2F)ccn1 [Compound I-2101] | 7.59 | – |
| Cc1ccc(Cn2c(=O)[nH]c(=O)[nH]/c2=N\c2ccc(Oc3cncc(C(=O)O)c3)cc2)cc1 [Compound I-2102] | 7.47 | – |

| Compound | pIC50 [1] | pIC50 (human P2X3 receptor, Test Example 1) |
| --- | --- | --- |
| Cn1c(=O)[nH]/c(=N\c2ccc(Oc3cncc(C(=O)O)c3)cc2)n(Cc2ccc(Cl)cc2)c1=O [Compound I-2103] | 7.70 | – |
| CCn1c(=O)[nH]/c(=N\c2ccc(Oc3ccc(C(=O)OC)nc3)cc2)n(Cc2ccc(Cl)cc2)c1=O [Compound I-2105] | 9.00 | – |
| CCn1c(=O)[nH]/c(=N\c2ccc(Oc3ccc(C(=O)OC)nc3)cc2)n(Cc2ccc(C)cc2)c1=O [Compound I-2106] | 8.70 | – |
| CCn1c(=O)[nH]/c(=N\c2ccc(Oc3cc(C(N)=O)on3)cc2)n(Cc2ccc(Cl)cc2)c1=O [Compound I-2107] | 8.15 | – |
| CCn1c(=O)[nH]/c(=N\c2ccc(Oc3nccc(O)n3)cc2)n(Cc2ccc(Cl)cc2)c1=O [Compound I-2108] | 7.59 | – |
| CC(C)Oc1ccc(/N=c2\[nH]c(=O)n(CCN(CCO)C(=O)OC(C)(C)C)c(=O)n2Cc2ccc(Cl)cc2)cc1F [Compound I-2109] | 7.96 | – |
| CCn1c(=O)[nH]/c(=N\c2ccc(Oc3ccnc(C(=O)NC)c3)cc2)n(Cc2ccc(F)cc2)c1=O [Compound I-2110] | 7.92 | – |
| CCn1c(=O)[nH]/c(=N\c2ccc(Oc3cncc(C(=O)OC)c3)cc2)n(Cc2ccc(F)cc2)c1=O [Compound I-2111] | 7.36 | – |
| CCn1c(=O)[nH]/c(=N\c2ccc(Oc3cncc(C(=O)O)c3)cc2)n(Cc2ccc(F)cc2)c1=O [Compound I-2112] | 7.33 | – |
| COC(=O)c1cc(Oc2ccc(/N=c3\[nH]c(=O)n(CCOC4CCCCO4)c(=O)n3Cc3ccc(Cl)cc3)cc2)no1 (centres unmarked) [Compound I-2113] | 9.00 | – |
| CCn1c(=O)[nH]/c(=N\c2ccc(Oc3ccc(CO)nc3)cc2)n(Cc2ccc(Cl)cc2)c1=O [Compound I-2114] | 8.15 | – |
| CCn1c(=O)[nH]/c(=N\c2ccc(Oc3ccc(C(=O)O)nc3)cc2)n(Cc2ccc(Cl)cc2)c1=O [Compound I-2115] | 7.74 | – |
| CCn1c(=O)[nH]/c(=N\c2ccc(Oc3ccc(C(=O)O)nc3)cc2)n(Cc2ccc(C)cc2)c1=O [Compound I-2116] | 7.82 | – |
| O=C(O)c1cc(Oc2ccc(/N=c3\[nH]c(=O)n(CCO)c(=O)n3Cc3ccc(Cl)cc3)cc2)no1 [Compound I-2117] | 7.64 | – |
| O=c1[nH]/c(=N\c2ccc(Oc3cc(CO)on3)cc2)n(Cc2ccc(Cl)cc2)c(=O)n1CCO [Compound I-2118] | 7.46 | – |
| CCn1c(=O)[nH]/c(=N\c2ccc(Oc3ccc(C(N)=O)nc3)cc2)n(Cc2ccc(Cl)cc2)c1=O [Compound I-2119] | 9.00 | – |
| CCn1c(=O)[nH]/c(=N\c2ccc(Oc3cncc(C(N)=O)c3)cc2)n(Cc2ccc(F)cc2)c1=O [Compound I-2120] | 7.48 | – |
| Cc1ccc(Cn2c(=O)n(C)c(=O)[nH]/c2=N\c2ccc(Oc3cncc(C(=O)O)c3)cc2)cc1 [Compound I-2121] | 7.68 | – |
| CC(C)Oc1ccc(/N=c2\[nH]c(=O)n(CCNCCO)c(=O)n2Cc2ccc(Cl)cc2)cc1F [Compound I-2122] | 7.03 | – |
| CCOC(=O)CCCn1c(=O)[nH]/c(=N\c2ccc3nc(C)sc3c2)n(Cc2ccc(C)cc2)c1=O [Compound I-2123] | 8.40 | – |
| Cc1ccc(Cn2c(=O)n(CCCC(=O)O)c(=O)[nH]/c2=N\c2ccc3nc(C)sc3c2)cc1 [Compound I-2124] | 7.57 | – |
| CCn1c(=O)[nH]/c(=N\c2ccc(Oc3cncc(OC)n3)cc2)n(Cc2ccc(Cl)cc2)c1=O [Compound I-2125] | 8.15 | – |
